One molecule from US6057314A, “Low molecular weight bicyclic thrombin inhibitors” (Biochem Pharma Inc., priority 1997, dated 2000) can be followed below.

Test [1] deals with T1, human thrombin (Homo sapiens, UniProt P00734). The test is described as follows: Inhibition of amidolytic activity of human thrombin (Ki, fluorogenic substrate Tos-Gly-Pro-Arg-AMC). Format: biochemical. Conditions: Table 1, read-out: Ki (inhibitory dissociation constant for human thrombin). The protocol:
In an assay to determine the inhibitory dissociation constant, Ki, for a given compound, a chromogenic or fluorogenic substrate of thrombin would be added to a solution containing a test compound and thrombin; the resulting catalytic activity of the enzyme would be spectrophotometrically determined. This type of assay is well known to those skilled in the art.
Determination of K1 Values for Heterocyclics
The steady-state velocity was then measured for a few minutes. The compounds of this invention were also pre-incubated with thrombin for 20 minutes at room temperature before adding the substrate.

The target in test [2] is T1, human thrombin. The test is described as follows: dTT assay (fibrin clotting assay, human thrombin and bovine fibrinogen). Format: biochemical. Conditions: Table 1; concentration required to double the clotting time; read-out: dTT IC50. An excerpt:
The clotting time was plotted against the inhibitor concentrations and the IC50 was estimated as the inhibitor concentration required to double the clotting time relative to the control.

Test [3] deals with T1, human thrombin. Description: Fibrin clot assay (human plasma, turbidity). Format: biochemical. The conditions noted are these: Table 1, 1 nM thrombin, at 30 minutes. The protocol: The fibrin clot assay was performed essentially as described by Krtenansky et al, FEBS, 1987, 211:10. A serial dilution of the inhibitor was prepared in 50 mM tri HCl buffer (pH 7.8 at 23° C.) containing 0.1 M NaCl and 0.1% (w/v) polyethylene glycol 8000. Human plasma (60 μL, collected in 3.8% sodium citrate, blood/anticoagulate 9:1) was added to microtiter wells (microtiter plate, Falcon) containing 100 μL of various inhibitor dilutions. The solution was mixed after which 50 μL of human thrombin (1 nM final conc.) was added and mixed for 15 seconds. The turbidity of the clot was immediately monitored by microplate autoreader (Dynateck MR 5000) at 405 nm and recorded every 3 min. The maximal turbidity in the absence of inhibitors was reached within 60 min. IC50 values were calculated at 30 minutes as the inhibitor concentration that gave half the optical density of the control.

Test [4] concerns washed platelets from rats. Description: Platelet aggregation (washed rat platelets, thrombin stimulated). Format: cell-based. Conditions: Table 1, suspension of washed platelets from rats, human thrombin 0.1 IU/mL, read-out: Antiplatelet activity, Aggregation (IC50). The protocol:
(§1) Platelet Aggregation and Secretion Rat blood was collected into ACD (6/1 v/v) by cardiac puncture. Suspensions of washed platelets were prepared as described by […] et al, (Br. J. Haematol. 1970, 19:7 and Proc. Soc. Exp. Biol. Med. 1971, 136:1021). […] Platelet counts were adjusted to 5000,000/ μL. Platelet aggregation was recorded at 37° C. in an aggregometer (BioData PAP-4) at a stirring speed of 1,100 rpm by measuring the variations of light transmission. […] IC50 values represent the concentration that was necessary to inhibit platelet aggregation or secretion to 50% of the control.

Test [5] concerns washed platelets from rats. Description: Platelet secretion (14C-serotonin, 5-HT, release from washed rat platelets, thrombin stimulated). The conditions noted are these: Table 1, human thrombin 0.1 IU/mL, read-out: Antiplatelet activity, 5-HT Secretion (IC50). Format: cell-based. The protocol:
as §1, with “μL. To permit measurement of the extent of release of the contents of the dense granules, the platelets were labelled in the first washing solution with ^14 C-serotonin (5-HT) (1 μCi/10 mL of washing fluid) and release of ^14 C-serotonin was determined as described in Holmsen et al, (Enzymology, 1989, 169:206). […] (5 μM final conc.) was added to present the reuptake of released serotonin.” for “μL.”

The term Ki denotes the equilibrium dissociation constant of an inhibitor or competing ligand from its target. For orientation: IC50 means the concentration needed to halve the response being measured. For `CC(SCC(=O)C(CCCNC(=N)N)NC(=O)[C@@H]1CSC2CC[C@@H](CC3CCCCC3)C(=O)N21)C(=O)O` (stereo partly drawn) [Compound 0070, 6S-cyclohexylmethylhexahydro-5-oxo-5H-thiazolo[3,2-a]pyridine-3R-carboxamido(1-carboxy-2-methyl-3-thiobutylketoarginine)], the Ki at human thrombin [1] stood at 4.4 µM. Also, the IC50 on human thrombin [2] is 25 µM; against human thrombin [3], 78 µM; in test [4] it was 22 µM; in test [5] it was 2.1 µM.
